Experimental data: patent US5108900A, “Monoclonal antibodies to synthetic pyrethroids and method for detecting the same” (Regents of the University of California, priority 1989, dated 1992)

Columns and labels:
[1] = background; cited from earlier work
monoclonal antibody Py-1 = test: Competition ELISA (cELISA), monoclonal antibody Py-1, 3-pba-BSA coated plates; assay type: binding, mouse; conditions: for I50 values observed for competitors (FIG. 4) / Average 50% inhibition values (I50), Py-1: Py-1; for Average 50% inhibition values (I50), Py-1: Table I, averages from at least 12 assays
Description: (§1) The binding specificities of antibodies to standards and assay samples were evaluated by competition ELISA assays. In a competition assay system, an antigen, which is a large molecule with protein or carbohydrate moieties which can precisely bind with steric interaction with the conformation of the antibodies is fixed to the reaction surface of a test plate, and antigen-specific antibody is added along with an aliquot of sample extract or standard test solution. The free-floating antibody partitions between the fixed antigen bound to the test reaction surface and the antigen of the added sample or standard which is free-floating in the solution. After a reaction period, the free-floating antigen-antibody complex is washed away. The plate is rewashed and incubated with an enzyme-tagged indicator molecule which will immunospecifically bind to proteins of the animal species which was the source of the pyrethroid-specific antibodies. Substrate and buffer are provided for the reaction of the enzyme-tagged indicator molecule. The optical signal from the enzyme substrate reaction indicates the amount of pyrethroid-specific antibody which remains bound to the immobilized antigen on the reaction plate. The utility of such a reaction system is dependent on the surface binding of the antigenic hapten-protein complex. The sensitivity of such a binding system can be amplified by coupling the enzyme reaction endpoint to a biotin-avidin complex. Optimal enzyme sensitivity occurs when a minimal amount of coating antigen (3-pba-BSA) is used.
(§2) A competition enzyme-linked immunosorbent assay (c-ELISA) was developed to quantify permethrin standards in solution and to assess the specificity of the antibodies for various natural and synthetic pyrethroids. […] The 3-pba conjugate could be prepared by using EDC (1-ethyl-3-(3-dimethylaminopropyl)carbodiimide) as a cross-linking agent. The 3-pba conjugate was used as the coating agent for all subsequent experiments. Microtiter plates were coated with 0.5 μg/well 3-pba-BSA and blocked with ovalbumin.
(§3) In the competition ELISA, the competitors were dissolved in acetonitrile and were added to phosphate-buffered saline(PBS)-Tween buffer such that the resulting solution was 6% acetonitrile. Competitor was added so that each well contained 100 μl of competitor in a 6% acetonitrile-PBS solution. An equal volume of PBS containing monoclonal antibody was added such that there was a final concentration assay buffer containing antibody and competitor. These antibodies can tolerate up to 5% acetonitrile without loss of activity. The plates were incubated for one hour at 37° C. and the endpoint assessed by observation of the color change of p-nitrophenyl phosphate substrate actuated by alkaline phosphatase conjugated to goat anti-mouse antibody.
(§4) Because the sensitivity of c-ELISA's can be influenced by both the amount of specific anti-hapten antibody used and the amount of immobilized antigen, both of these parameters were optimized. In the preferred method, the amount of antigen used to coat the microtiter plates was varied from 10-0.5 μg/well, with 0.5 μg/well being more preferred. The method of application of the antigen to the plate was important to the assay. Antigen could be absorbed onto the wells overnight at 4° C. or antigen could be allowed to evaporate from the antigen solution onto the wells at 37° C. Using Py-1 antibody and permethrin as competitor, maximal sensitivity was observed when the antigen was allowed to evaporate onto the wells. In the preferred method microliter plates were prepared by evaporation of 100 μl of a 5 μg/mL solution of coating antigen (3-pba-BSA) at 37° C..
The antibody Py-1 was titrated against immobilized antigen (0.5 μg […]/well) in a direct binding ELISA. At a Py-1 antibody concentration of 0.02 μg/well, the level used in subsequent cELISA's, 40% of the plateau activity was reached. […]

[2] = cited from earlier work; for oncogenicity listing by U.S. Environmental Protection Agency: Regulating Pesticides in Food: The Delaney Paradox, 1987; for mammalian toxicity: background
monoclonal antibody Py-4 = test: Competition ELISA (cELISA), monoclonal antibody Py-4, 3-pba-BSA coated plates; assay type: binding, mouse; conditions: for Average 50% inhibition values (I50), Py-4: Table I, averages from at least 12 assays
Description: as §1, §2, §3
as §4, with “C.. […]” for “C..”
(§5) The competition ELISA data was normalized using 100% activity as the optical density in wells in which antibody bound to the solid phase antigen (3-pba-BSA) in the absence of any competitor. The test wells, each containing different amounts of competitor, were normalized to the 100% activity wells. […]

monoclonal antibody Py-3 = test: Competition ELISA (cELISA), monoclonal antibody Py-3, 3-pba-BSA coated plates; assay type: binding, mouse; conditions: for Average 50% inhibition values (I50), Py-3: Table I, averages from at least 12 assays
Description: as §1, §2, §3
as §4, with “C.. […]” for “C..”
as §5

[3] = tested on: Antibodies selected for their binding to the analog hapten of permethrin; test: Antibody response to hapten and related pyrethroids; design: species or system mouse
Text: Synthetic pyrethroids are small organic molecules, and in an effort to render such a molecule immunogenic, it was necessary to conjugate such molecules to carrier protein. Various modifications of synthetic pyrethroids can be made to achieve this purpose.

CC1(C)C(C=C(Cl)Cl)C1C(=O)OC(C#N)c1cccc(Oc2ccccc2)c1 (mixture of isomers) [Cypermethrin, alpha-cyano-3-phenoxybenzyl cis, trans-3-(2,2-dichlorovinyl)-2,2-dimethylcyclopropanecarboxylate]
stability [1]: more stable | I50 values observed for competitors (FIG. 4) (monoclonal antibody Py-1): 30 ng/well | Average 50% inhibition values (I50), Py-1 (monoclonal antibody Py-1): 30 nanograms | oncogenicity listing by U.S. Environmental Protection Agency [2]: potentially oncogenic | mammalian toxicity [2]: low mammalian toxicity | Average 50% inhibition values (I50), Py-4 (monoclonal antibody Py-4): 22 nanograms | Average 50% inhibition values (I50), Py-3 (monoclonal antibody Py-3): 20 nanograms

CC1(C)C(C=C(Cl)Cl)C1C(=O)OCc1cccc(Oc2ccccc2)c1 (mixture of isomers) [Permethrin, 3-phenoxybenzyl (lRS),cis,trans-3(2,2-dichlorovinyl)-2,2-dimethylcyclopropanecarboxylate]
stability [1]: more stable | responsiveness of antibodies [3]: similarly responsive | concentration which caused a 50% inhibition (I50) of antibody activity, Py-1 (monoclonal antibody Py-1; FIG. 3, in words): low nanogram range | I50 values observed for competitors (FIG. 4) (monoclonal antibody Py-1): 1.7 ng/well | 50% inhibition value, Py-1 (monoclonal antibody Py-1; Table 1, ng of competitor): 1.5 ng | Average 50% inhibition values (I50), Py-1 (monoclonal antibody Py-1; listed as Permethrin (mixed isomers)): 1.5 nanograms | oncogenicity listing by U.S. Environmental Protection Agency [2]: potentially oncogenic | mammalian toxicity [2]: low mammalian toxicity | concentration which caused a 50% inhibition (I50) of antibody activity, Py-4 (monoclonal antibody Py-4; FIG. 3, in words): low nanogram range | 50% inhibition value, Py-4 (monoclonal antibody Py-4; Table 1, ng of competitor): 12 ng | Average 50% inhibition values (I50), Py-4 (monoclonal antibody Py-4): 12 nanograms | concentration which caused a 50% inhibition (I50) of antibody activity, Py-3 (monoclonal antibody Py-3; FIG. 3, in words): low nanogram range | 50% inhibition value, Py-3 (monoclonal antibody Py-3; Table 1, ng of competitor): 1.7 ng | Average 50% inhibition values (I50), Py-3 (monoclonal antibody Py-3): 1.7 nanograms

CC(C)=CC1C(C(=O)OCc2cccc(Oc3ccccc3)c2)C1(C)C (mixture of isomers) [Phenothrin, 3-phenoxybenzyl(lRS)cis,transchrysanthemate]
responsiveness of antibodies [3]: similarly responsive | I50 values observed for competitors (FIG. 4) (monoclonal antibody Py-1): 1.5 ng/well | Average 50% inhibition values (I50), Py-1 (monoclonal antibody Py-1): 1.5 nanograms | Average 50% inhibition values (I50), Py-4 (monoclonal antibody Py-4): 6 nanograms | Average 50% inhibition values (I50), Py-3 (monoclonal antibody Py-3): 0.5 nanograms

CC(C)=CC1C(C(=O)OCN2C(=O)C3=C(CCCC3)C2=O)C1(C)C (mixture of isomers) [Tetramethrin, N-(3,4,5,6-tetrahydrophthalimino) methyl (dl)-cis,trans-chrysanthemate]
Average 50% inhibition values (I50), Py-1 (monoclonal antibody Py-1): > 600 nanograms

CC1(C)[C@H](C(=O)O[C@H](C#N)c2cccc(Oc3ccccc3)c2)[C@@H]1C=C(Br)Br (racemic) [Deltamethrin, -/+alpha-cyano-3-phenoxybenzyl-(+/-)-cis,trans-3-(2,2-dibromovinyl)-2,2-dimethylcyclopropanecarboxylate]
stability [1]: more stable | I50 values observed for competitors (FIG. 4) (monoclonal antibody Py-1): 15 ng/well | Average 50% inhibition values (I50), Py-1 (monoclonal antibody Py-1): 15 nanograms | mammalian toxicity [2]: low mammalian toxicity | Average 50% inhibition values (I50), Py-4 (monoclonal antibody Py-4): 10 nanograms | Average 50% inhibition values (I50), Py-3 (monoclonal antibody Py-3): 10 nanograms

O=Cc1cccc(Oc2ccccc2)c1 [3-Phenoxybenzaldehyde]
Average 50% inhibition values (I50), Py-1 (monoclonal antibody Py-1): 22 nanograms

O=C(O)c1cccc(Oc2ccccc2)c1 [3-Phenoxybenzoic acid]
Average 50% inhibition values (I50), Py-1 (monoclonal antibody Py-1): 200 nanograms | Average 50% inhibition values (I50), Py-4 (monoclonal antibody Py-4): 330 nanograms | Average 50% inhibition values (I50), Py-3 (monoclonal antibody Py-3): 140 nanograms

CC(C)=CC1C(C(=O)O)C1(C)C (stereo not shown) [Chrysanthemic acid]
Average 50% inhibition values (I50), Py-1 (monoclonal antibody Py-1): > 600 nanograms

CC1(C)C(C(=O)OC(C#N)c2cccc(Oc3ccccc3)c2)C1(C)C (stereo not drawn) [Fenpropathrin, alpha-cyano-3-phenoxybenzyl-2,2,3,3-tetramethylcyclopropanecarboxylate]
Average 50% inhibition values (I50), Py-1 (monoclonal antibody Py-1): 17 nanograms | Average 50% inhibition values (I50), Py-4 (monoclonal antibody Py-4): 25 nanograms | Average 50% inhibition values (I50), Py-3 (monoclonal antibody Py-3): 10 nanograms

CC(C)C(C(=O)OC(C#N)c1cccc(Oc2ccccc2)c1)c1ccc(Cl)cc1 (stereo not shown) [Fenvalerate, cyano(3-phenoxyphenyl)methyl 4-chloroalpha-(1-methylethyl)benzeneacetate]
I50 values observed for competitors (FIG. 4) (monoclonal antibody Py-1): 350 ng/well | Average 50% inhibition values (I50), Py-1 (monoclonal antibody Py-1): 350 nanograms | Average 50% inhibition values (I50), Py-4 (monoclonal antibody Py-4): 4000 nanograms | Average 50% inhibition values (I50), Py-3 (monoclonal antibody Py-3): 160 nanograms

CC(C)[C@H](C(=O)OC(C#N)c1cccc(Oc2ccccc2)c1)c1ccc(OC(F)F)cc1 (stereo partly drawn) [Flucythranate, cyano(3-phenoxyphenyl)methyl(S)-4-(difluoromethoxy)-alpha-(1-methylethyl) benzeneacetate]
Average 50% inhibition values (I50), Py-1 (monoclonal antibody Py-1): 120 nanograms | Average 50% inhibition values (I50), Py-4 (monoclonal antibody Py-4): 275 nanograms | Average 50% inhibition values (I50), Py-3 (monoclonal antibody Py-3): 45 nanograms

CC1(C)C(C(=O)O)C1C(=O)OCc1cccc(Oc2ccccc2)c1 (stereo not shown) [Hapten]
responsiveness of antibodies [3]: similarly responsive | Average 50% inhibition values (I50), Py-1 (monoclonal antibody Py-1): 2 nanograms | Average 50% inhibition values (I50), Py-4 (monoclonal antibody Py-4): 0.6 nanograms | Average 50% inhibition values (I50), Py-3 (monoclonal antibody Py-3): 0.3 nanograms

CC1(C)C(C=C(Cl)Cl)C1C(=O)OCc1cccc(Oc2ccccc2)c1 [Permethrin (trans isomers)]
Average 50% inhibition values (I50), Py-1 (monoclonal antibody Py-1): 1.7 nanograms

C=CCC1=C(C)C(OC(=O)C2C(C=C(C)C)C2(C)C)CC1=O (stereo not shown) [allethrin]
stability in the air and water [1]: unstable character

C=CCC1=C(C)C(OC(=O)[C@@H]2[C@@H](C=C(C)C)C2(C)C)CC1=O (stereo partly shown) [bioallethrin]
stability in the air and water [1]: unstable character
